Reference: patent US9994915B2, “miR-211 expression and related pathways in human melanoma” (Sanford-Burnham Medical Research Institute, priority 2010, dated 2018)

Experiments:
Assay type in all cases: cell-based, human
PDK4 protein = assay: western blot of PDK4 protein; conditions: miR-211-expressing melanoma cells, gel (FIG. 38)
Source text: This target was further confirmed by the cleavage assay, and the downregulation was verified by western blot analysis (FIG. 38). Similarly, peroxisome proliferator-activated receptor-γ coactivator (PGC1α) was identified by the proteomics data and validated by western blot analysis. PGC1α is a low express gene in A375 cells, but it is been targeted by miR-211 according to target cleavage and qPCR results. Finally, insulin-like growth factor-binding protein 5 (IGFBP5) was identified through the RNA-seq data and results are illustrated in FIG. 34.

WM1552C melanoma cells [1] = assay: cell proliferation (cell counts) of WM1552C lines
Procedure: The over-expression of KCNMA1 is often associated with both cell proliferation and cell migration/invasion in various cancers. Therefore, the effects of depletion of miR-211 and associated over-expression of KCNMA1 on these process in melanoma cells were determined. Proliferation rates of melanoma cell lines stably transfected with the miR-211 expression cassette were compared with those of untransfected melanoma cells and cell lines transfected with the empty expression vector (FIG. 8A), respectively.
Assays were performed using WM1552C, WM1552C/VO, WM1552C/211(400), WM1552C/211(800), A375, A375/VO, and A375/211 cell lines. Cells were grown in log phase, trypsinized, counted using an automated cell counter (Cellometer®, Nexcelom Bioscience), and then seeded into 75 cm^2 flasks at 5×10^5 cells per flask (in triplicate). Media was changed after 6 hours, and cells were further fed every 48 hours (Complete Tu Media). At days 4, 10, 15, and 21, cells were trypsinized, counted (Cellometer®, Nexcelom Bioscience), and then reseeded. Each assay was performed in duplicate for all cell lines.

WM1552C melanoma cells [2] = assay: Matrigel invasion chamber assay; conditions: 48 hours
Procedure: BD BioCoat™ growth factor reduced insert plates (Matrigel™ Invasion Chamber 12 well plates) were prepared by rehydrating the BD Matrigel™ matrix coating in the inserts with 0.5 mls of serum-free Complete Tu media for two hours at 37° C. The rehydration solution was carefully removed from the inserts, 0.5 ml Complete Tu (2% FBS) was added to the lower wells of the plate, and 2.5×10^4 cells suspended in 0.5 ml of serum-free Complete Tu media were added to each insert well. WM1552C/211(800) cells were additionally transfected with the Anti-miR miRNA Inhibiter for hsa-miR-211 as well as Negative Control #1 (Ambion) (miR-Scramble) at a concentration of 100 nM using siPORT NeoFX (Ambion). […] The number of migrating tumor cells was counted from each of five images per cell line (including miR Inhibiter transfected cells) in the central area of the filter. […] Data are expressed as the percent invasion through the membrane relative to the migration of WM1552C (Wild Type) through the membrane.
The impact of miR-211 expression on the invasive properties of WM1552C. WM1552C/211(400) and WM1552C/211(800) cells, along with WM1552C/VO, WM1552C/KC KO, and untransfected WM1552C was determined. […]
2.5×10^5 cells WM1552C/211(800) cells were seeded into wells of a 6-well plate. […] After 48 hours, the cells were harvested by trypsinization and counted using an automated cell counter (Cellometer®, Nexcelom Bioscience). […]

A375 melanoma cells = assay: oxygen consumption, Seahorse XF96 Analyzer; conditions: miR-211-expressing A375 cells
Procedure: Deep-sequencing (RNA-seq) and proteomics (mass spectrometry) data from two melanoma cell lines A375 and W[…], each expressing miR-211 or the empty vector, were generated. […] Energy consumption was investigated in miR-211-expressing cells. Using the Seahorse XF96 Analyzer, it was determined that miR-211-expressing melanoma cells (A375) consumed nearly double the amount of oxygen as control cells expressing the empty vector (FIG. 35). […] Finally, we measured the level of hypoxia-inducible factor 1 alpha (HIF-1α) in miR-211-expressing cells. HIF-1α expression was reduced by miR-211 expression which is an indication of cellular respiration changes (FIG. 37).

IGFBP5 3′UTR = assay: luciferase reporter target inhibition assay with IGFBP5 3′UTR; conditions: A375/211 cells
Source text: A putative miR-211 binding site with the sequence 5′-aaagggaa-3′ (SEQ ID NO:40) is present in the 3′-UTR of the IGFBP5 mRNA (SEQ ID NO:41; FIG. 26). In order to investigate the specificity and mechanism of miR-211 inhibition of IGFBP5, three luciferase reporter constructs were created, each having a different 3′-UTR on the luciferase gene. The constructs were as follows: (i) luciferase coding sequence with the luciferase 3′-UTR (“pcDNA6/Luc/NP3”), (ii) luciferase coding sequence with the IGFBP5 3′-UTR (“pcDNA6/Luc/NP3/IGFBP5 3′UTR”), and (iii) luciferase coding sequence with the IGFBP5 3′-UTR having a mutation in the miR-211 binding site (“pcDNA6/Luc/NP3/IGFBP5 3′UTR Mut”). The mutant miR-211 binding site is represented by SEQ ID NO:42 (5′-taagccta-3′). Vectors encoding these constructs were transfected into native A375 cells, A375 cells containing the miR-211-expressing vector (“A375/211”), or A375 cells having an empty vector (“A375/VO”). […] In the miR-211-expressing A375 cells, luciferase expression was unaffected for the constructs containing the native luciferase 3′UTR and the IGFBP5 3′UTR in which the miR-211 binding site had been altered. However, the luciferase activity was reduced by nearly 40% when the native IGFBP5 3′UTR was expressed.

Substance: miR-211: pre-miR-211 sequence stably expressed from plasmid pcDNA4/miR-211 in melanoma cells; mature sequence UUCCCUUUGUCAUCCUUCGCCU (SEQ ID NO: 15) (listed as Homo sapiens)
- PDK4 protein expression (PDK4 protein): virtually undetectable
- decrease in cell counts compared to WM1552C (WM1552C melanoma cells [1]; WM1552C/211(400), after a 21-day period): greater than 30%
- decrease in cell proliferation compared to WM1552C (WM1552C melanoma cells [1]; WM1552C/211(800), after a 21-day period): even greater decrease
- decrease in growth over the invasion assay period (WM1552C melanoma cells [1]; WM1552C/211 cells, 48 hours): 8-10%
- migrated less than WM1552C (invasion) (WM1552C melanoma cells [2]; WM1552C/211(400)): ~40%
- migrated less than WM1552C (invasion) (WM1552C melanoma cells [2]; WM1552C/211(800)): ~60%
- amount of oxygen consumed vs empty vector control cells (A375 melanoma cells): nearly double
- reduction of luciferase activity (IGFBP5 3′UTR; native IGFBP5 3′UTR construct): ~40%
- luciferase expression (IGFBP5 3′UTR; native luciferase 3′UTR or IGFBP5 3′UTR with altered miR-211 binding site): unaffected
